The values that follow come from patent US11083707B2, “Substituted indoline derivatives as dengue viral replication inhibitors” (JANSSEN PHARMACEUTICALS, INC., priority 2017, dated 2021).

One data set can be described thus: in vitro. The settings on record: African green monkey.
Another data set relates to DENV-2 16681 strain. Briefly: DENV-2 antiviral assay (eGFP fluorescence, Vero cells). It counts as cell-based, Dengue virus. The settings on record: DENV-2 16681 eGFP, MOI 0.5, 3 days. As to the method:
The antiviral activity of all the compounds of the invention was tested against the DENV-2 16681 strain which was labeled with enhanced green fluorescent protein (eGPF). The culture medium consists of minimal essential medium supplemented with 2% of heat-inactivated fetal calf serum, 0.04% gentamycin (50 mg/mL) and 2 mM of L-glutamine. Vero cells, obtained from ECACC, were suspended in culture medium and 25 μL was added to 384-well plates (2500 cells/well), which already contain the antiviral compounds. Typically, these plates contain a 5-fold serial dilution of 9 dilution steps of the test compound at 200 times the final concentration in 100% DMSO (200 nL). […] Finally, each plate contains wells which are assigned as virus controls (containing cells and virus in the absence of compound), cell controls (containing cells in the absence of virus and compound) and medium controls (containing medium in the absence of cells, virus and compounds). To the wells assigned as medium control, 25 μL of culture medium was added instead of Vero cells. Once the cells were added to the plates, the plates were incubated for 30 minutes at room temperature to allow the cells to distribute evenly within the wells. Next, the plates were incubated in a fully humidified incubator (37° C., 5% CO2) until the next day. Then, DENV-2 strain 16681, labeled with eGFP, was added at a multiplicity of infection (MOI) of 0.5. Therefore, 15 μL of virus suspension was added to all the wells containing test compound and to the wells assigned as virus control. In parallel, 15 μL of culture medium was added to the medium and cell controls. Next, the plates were incubated for 3 days in a fully humidified incubator (37° C., 5% CO2). At the day of the read out, the eGFP fluorescence was measured using an automated fluorescence microscope at 488 nm (blue laser). Using an in-house LIMS system, inhibition dose response curves for each compound were calculated and the half maximal effective concentration (EC50) was determined. Therefore, the percent inhibition (I) for every test concentration is calculated using the following formula: I=100*(ST-SCC)/(SVC-SCC), ST, SCC and SVC are the amount of eGFP signal in the test compound, cell control and virus control wells, respectively. The EC50 represents the concentration of a compound at which the virus replication is inhibited with 50%, as measured by a 50% reduction of the eGFP fluorescent intensity compared to the virus control. The EC50 is calculated using linear interpolation (Table 1).

[1] abbreviates: Dengue virus, DENV2, Vero, 72 h.

As to `COc1cc(NC(C(=O)N2CCc3ccc(C(F)(F)F)cc32)c2ccc(F)cc2OCCO)cc(-n2cncn2)c1` (single isomer, unassigned) [Compound 1A], the CC50 in “in vitro” came to 7700 nM. In the data set on DENV-2 16681 strain, the midpoint of the response, the EC50, lay at 1000 nM.

`COc1cc(NC(C(=O)N2CCc3cc(F)c(OC(F)(F)F)cc32)c2ccc(Cl)cc2OCCCC(=O)O)cc(-n2cncn2)c1` (single isomer, unassigned) [Compound 15A]: the CC50 in “in vitro” was found to be 10000 nM. The EC50 (as a rule, the concentration needed to bring the measured effect to its halfway point) in the data set with DENV-2 16681 strain turned out to be 5.3 nM.

Consider `COc1cc(NC(C(=O)N2CCc3cc(F)c(OC(F)(F)F)cc32)c2ccc(Cl)cc2OCCCC(=O)O)cc(-n2cncn2)c1` (racemic) [Compound 15, 4-(5-chloro-2-(2-(5-fluoro-6-(trifluoromethoxy)indolin-1-yl)-1-((3-methoxy-5-(1H-1,2,4-triazol-1-yl)phenyl)amino)-2-oxoethyl)phenoxy)butanoic acid], for which the CC50 in “in vitro” came to 11000 nM. This molecule showed an EC50 with DENV-2 16681 strain (setting [1]) of 0.22 nM.

Molecule `COc1cc(NC(C(=O)N2CCc3cc(OC)c(C(F)(F)F)cc32)c2ccc(Cl)cc2OCCCC(=O)O)cc(-n2cncn2)c1` (racemic) [Compound 12, 4-(5-chloro-2-(1-((3-methoxy-5-(1H-1,2,4-triazol-1-yl)phenyl)amino)-2-(5-methoxy-6-(trifluoromethyl)indolin-1-yl)-2-oxoethyl)phenoxy)butanoic acid] displayed a CC50 in “in vitro” of 13000 nM. Also, the response in the data set with DENV-2 16681 strain (setting [1]) was half-maximal at 2.2 nM (EC50).

Consider `COc1cc(NC(C(=O)N2CCc3cc(OC)c(C(F)(F)F)cc32)c2ccc(F)cc2OCCO)cc(-n2cncn2)c1` (single isomer, unassigned) [Compound 2A], for which the CC50 in the data set “in vitro” amounted to 12000 nM. This molecule also displayed a half-maximal effective concentration (EC50) in the data set with DENV-2 16681 strain of 270 nM.

Regarding `COc1cc(NC(C(=O)N2CCc3ccc(OC(F)(F)F)cc32)c2ccc(F)cc2OCCO)cc(-n2cncn2)c1` (racemic) [Compound 3, 2-(4-fluoro-2-(2-hydroxyethoxy)phenyl)-2-((3-methoxy-5-(1H-1,2,4-triazol-1-yl)phenyl)amino)-1-(6-(trifluoromethoxy)indolin-1-yl)ethanone], the CC50 in the data set “in vitro” was 8500 nM. Besides, the EC50 in the data set with DENV-2 16681 strain (setting [1]) stood at 1.9 nM.

With `COc1cc(NC(C(=O)N2CCc3ccc(C(F)(F)F)cc32)c2ccc(Cl)cc2OCCCC(=O)O)cc(-n2cncn2)c1` (single isomer, unassigned) [Compound 11A], in the data set “in vitro”, the CC50 is 11000 nM. The molecule also gave an EC50 in the data set with DENV-2 16681 strain of 45 nM.

In turn, `COc1cc(NC(C(=O)N2CCc3cc(OC)c(C(F)(F)F)cc32)c2ccc(F)cc2OCCO)cc(-n2cncn2)c1` (racemic) [Compound 2, 2-(4-fluoro-2-(2-hydroxyethoxy)phenyl)-2-((3-methoxy-5-(1H-1,2,4-triazol-1-yl)phenyl)amino)-1-(5-methoxy-6-(trifluoromethyl)indolin-1-yl)ethanone] came in with a CC50 in the data set “in vitro” of 13000 nM. In the data set with DENV-2 16681 strain (setting [1]), this molecule showed an EC50 of 2.8 nM.

`COc1cc(NC(C(=O)N2CCc3cc(F)c(OC(F)(F)F)cc32)c2ccc(Cl)cc2OCCO)cc(-n2cncn2)c1` (racemic) [Compound 9, 2-(4-chloro-2-(2-hydroxyethoxy)phenyl)-1-(5-fluoro-6-(trifluoromethoxy)indolin-1-yl)-2-((3-methoxy-5-(1H-1,2,4-triazol-1-yl)phenyl)amino)ethanone]: the CC50 in the data set “in vitro” amounted to 3900 nM. In the data set with DENV-2 16681 strain (setting [1]), this molecule came in with an EC50 of 1.6 nM.

On to `COc1cc(NC(C(=O)N2CCc3ccc(C(F)(F)F)cc32)c2ccc(Cl)cc2OCCCC(=O)O)cc(-n2cncn2)c1` (racemic) [Compound 11, 4-(5-chloro-2-(1-((3-methoxy-5-(1H-1,2,4-triazol-1-yl)phenyl)amino)-2-oxo-2-(6-(trifluoromethyl)indolin-1-yl)ethyl)phenoxy)butanoic acid], for which the CC50 in “in vitro” worked out at 15000 nM. Further, a half-maximal effect in the data set on DENV-2 16681 strain (setting [1]) (EC50) was put at 0.31 nM.

In the case of `COc1cc(NC(C(=O)N2CCc3cc(OC)c(C(F)(F)F)cc32)c2ccc(Cl)cc2OCCO)cc(-n2cncn2)c1` (racemic) [Compound 5, 2-(4-chloro-2-(2-hydroxyethoxy)phenyl)-2-((3-methoxy-5-(1H-1,2,4-triazol-1-yl)phenyl)amino)-1-(5-methoxy-6-(trifluoromethyl)indolin-1-yl)ethanone], in the data set “in vitro”, the CC50 was 11000 nM. Also, a half-maximal effect in the data set with DENV-2 16681 strain (setting [1]) (EC50) was put at 0.82 nM.

Molecule `COc1cc(NC(C(=O)N2CCc3cc(OC)c(C(F)(F)F)cc32)c2ccc(Cl)cc2OCCO)cc(-n2cncn2)c1` (single isomer, unassigned) [Compound 5A] displayed a CC50 in “in vitro” of 11000 nM. Further, in the data set on DENV-2 16681 strain, the midpoint of the response, the EC50, lay at 42 nM.

The molecule `COc1cc(NC(C(=O)N2CCc3ccc(OC(F)(F)F)cc32)c2ccc(Cl)cc2OCCO)cc(-n2cncn2)c1` (racemic) [Compound 6, 2-(4-chloro-2-(2-hydroxyethoxy)phenyl)-2-((3-methoxy-5-(1H-1,2,4-triazol-1-yl)phenyl)amino)-1-(6-(trifluoromethoxy)indolin-1-yl)ethanone] displayed a CC50 in “in vitro” of 3300 nM. Also, in the data set with DENV-2 16681 strain (setting [1]), a half-maximal effect (EC50) was put at 0.97 nM.

`COc1cc(NC(C(=O)N2CCc3ccc(OC(F)(F)F)cc32)c2ccc(Cl)cc2OCCC(C)(C)C(=O)O)cc(-n2cncn2)c1` (single isomer, unassigned) [Compound 14A] came in with a CC50 in “in vitro” of 9100 nM. In the data set with DENV-2 16681 strain, a half-maximal response (EC50) required 420 nM.

In the case of `COc1cc(NC(C(=O)N2CCc3c(C)cc(OC(F)(F)F)cc32)c2ccc(Cl)cc2OCCO)cc(-n2cncn2)c1` (racemic) [Compound 10, 2-(4-chloro-2-(2-hydroxyethoxy)phenyl)-2-((3-methoxy-5-(1H-1,2,4-triazol-1-yl)phenyl)amino)-1-(4-methyl-6-(trifluoromethoxy)indolin-1-yl)ethanone], the CC50 in the data set “in vitro” came to 10000 nM. The same molecule registered an EC50 with DENV-2 16681 strain (setting [1]) of 0.35 nM.

The molecule `COc1cc(NC(C(=O)N2CCc3ccc(C(F)(F)F)cc32)c2ccc(Cl)cc2OCCO)cc(-n2cncn2)c1` (single isomer, unassigned) [Compound 4A] yielded a CC50 in the data set “in vitro” of 7800 nM. Also, the EC50 in the data set on DENV-2 16681 strain came out at 1200 nM.

With `COc1cc(NC(C(=O)N2CCc3cc(OC)c(OC(F)(F)F)cc32)c2ccc(Cl)cc2OCCO)cc(-n2cncn2)c1` (racemic) [Compound 8, 2-(4-chloro-2-(2-hydroxyethoxy)phenyl)-2-((3-methoxy-5-(1H-1,2,4-triazol-1-yl)phenyl)amino)-1-(5-methoxy-6-(trifluoromethoxy)indolin-1-yl)ethanone], the CC50 in the data set “in vitro” turned out to be 9500 nM. The EC50 in the data set on DENV-2 16681 strain (setting [1]) turned out to be 2.1 nM.

In “in vitro”, `COc1cc(NC(C(=O)N2CCc3c(C)cc(OC(F)(F)F)cc32)c2ccc(Cl)cc2OCCO)cc(-n2cncn2)c1` (single isomer, unassigned) [Compound 10A] displayed a CC50 of 10000 nM. The molecule also gave an EC50 in the data set with DENV-2 16681 strain of 63 nM.

Molecule `COc1cc(NC(C(=O)N2CCc3ccc(C(F)(F)F)cc32)c2ccc(F)cc2OCCO)cc(-n2cncn2)c1` (racemic) [Compound 1, 2-(4-fluoro-2-(2-hydroxyethoxy)phenyl)-2-((3-methoxy-5-(1H-1,2,4-triazol-1-yl)phenyl)amino)-1-(6-(trifluoromethyl)indolin-1-yl)ethanone] had a CC50 in the data set “in vitro” of 12000 nM. In the data set with DENV-2 16681 strain (setting [1]), this molecule gave an EC50 of 3.1 nM.

`COc1cc(NC(C(=O)N2CCc3ccc(OC(F)(F)F)cc32)c2ccc(Cl)cc2OCCC(C)(C)C(=O)O)cc(-n2cncn2)c1` (racemic) [Compound 14, 4-(5-chloro-2-(1-((3-methoxy-5-(1H-1,2,4-triazol-1-yl)phenyl)amino)-2-oxo-2-(6-(trifluoromethoxy)indolin-1-yl)ethyl)phenoxy)-2,2-dimethylbutanoic acid]: the CC50 in “in vitro” was determined as 10000 nM. This molecule yielded a concentration for a half-maximal effect (EC50) with DENV-2 16681 strain (setting [1]) of 0.41 nM.

Regarding `COc1cc(NC(C(=O)N2CCc3ccc(OC(F)(F)F)cc32)c2ccc(Cl)cc2OCCCC(=O)O)cc(-n2cncn2)c1` (racemic) [Compound 13, 4-(5-chloro-2-(1-((3-methoxy-5-(1H-1,2,4-triazol-1-yl)phenyl)amino)-2-oxo-2-(6-(trifluoromethoxy)indolin-1-yl)ethyl)phenoxy)butanoic acid], the CC50 in the data set “in vitro” is 11000 nM. For the same molecule, the EC50 in the data set with DENV-2 16681 strain (setting [1]) turned out to be 0.23 nM.

In the data set “in vitro”, `COc1cc(NC(C(=O)N2CCc3cc(F)c(C(F)(F)F)cc32)c2ccc(Cl)cc2OCCO)cc(-n2cncn2)c1` (single isomer, unassigned) [Compound 7A] came in with a CC50 of 11000 nM. Moreover, in the data set on DENV-2 16681 strain, a half-maximal response (EC50) required 430 nM.

On to `COc1cc(NC(C(=O)N2CCc3c(C)cc(OC(F)(F)F)cc32)c2ccc(Cl)cc2OCCCC(=O)O)cc(-n2cncn2)c1` (single isomer, unassigned) [Compound 16A], for which the CC50 in the data set “in vitro” was 11000 nM. In addition, the EC50 with DENV-2 16681 strain stood at 14 nM.
